From PMC9643649, “Engineering Enzyme Substrate Scope Complementarity for Promiscuous Cascade Synthesis of 1,2‐Amino Alcohols” (Angewandte Chemie (International Ed. in English), 2022)

Target: T1, RgnTDC (Mediterraneibacter gnavus, UniProt A7B1V0)
T1 construct: gene RUMGNA_01526; recombinant, purified; construct details only in the supplement
Test: decarboxylation turnover assay of purified enzyme
Format: biochemical
Conditions: native substrate

Compound: N[C@@H](Cc1c[nH]c2ccccc12)C(=O)O [Trp]
- decarboxylation turnover assay of purified enzyme: we observed only a slight decrease in activity on Trp and Phe
